According to ChEMBL document CHEMBL3272151, “Quantitative structure-activity relationship of chymotrypsin-ligand interactions” (J Med Chem, 1977):

Assays:
[1] = Inhibition of chymotrypsin (unknown origin); settings: Homo sapiens
[2] = Binding affinity to alpha-chymotrypsin (unknown origin) assessed as hydrolysis; settings: Homo sapiens
[3] = Binding affinity to alpha-chymotrypsin (unknown origin); settings: Homo sapiens
[4] = Binding affinity to chymotrypsin (unknown origin) assessed as acetylation at pH 7; settings: Homo sapiens
[5] = Binding affinity to chymotrypsin (unknown origin) assessed as acetylation at pH 6; settings: Homo sapiens
[6] = species: Homo sapiens
Description: Inhibition of alpha-chymotrypsin (unknown origin)

[7] = Binding affinity to chymotrypsin (unknown origin) assessed as deacetylation; settings: Homo sapiens
[8] = Binding affinity to chymotrypsin (unknown origin); settings: Homo sapiens
[9] = Binding affinity to chymotrypsin (unknown origin) assessed as hydrolysis; settings: Homo sapiens

SMILES: Cc1cccc(C(=O)O)c1
- log1/Ki [1]: 2.42

SMILES: COC(=O)CNC(=O)c1cccnc1
- logKcat [2]: -0.34
- log(1/Km) [3]: 1.5

SMILES: COC(=O)CNC(=O)C(Cl)Cl
- logKcat [2]: -1.64
- log(1/Km) [3]: 1.66

SMILES: COC(=O)CNC(=O)CC(C)C
- logKcat [2]: -1.6
- log(1/Km) [3]: 1.62

SMILES: CCSCC(=O)NCC(=O)OC
- logKcat [2]: -2.27
- log(1/Km) [3]: 1.98

SMILES: N#Cc1ccc(C(=O)Oc2ccc([N+](=O)[O-])cc2[N+](=O)[O-])cc1
- log K [4]: 5.94

SMILES: N#Cc1ccc(C(=O)Oc2ccc([N+](=O)[O-])cc2)cc1
- log K [4]: 3.94
- log K [5]: 3.35

SMILES: Cc1ccccc1
- log1/Ki [6]: 2.55

SMILES: O=C(Oc1ccc([N+](=O)[O-])cc1)c1ccc(C(F)(F)F)cc1
- log K [4]: 3.95
- log K [5]: 3.41
- log K [7]: -2.69

SMILES: COC(=O)CNC(=O)C(F)(F)F
- logKcat [2]: -1.07
- log(1/Km) [3]: 1.27

SMILES: O=C(Oc1ccc([N+](=O)[O-])cc1[N+](=O)[O-])c1cccc(Cl)c1
- log K [4]: 5.47

SMILES: CCCC[C@H](NC(C)=O)C(=O)OC
- log K [4]: 2.01
- log(1/Km) [8]: 2.17
- log K [7]: 1.28
- logKcat [9]: 0.92

SMILES: CCc1ccc(C(=O)Oc2ccc([N+](=O)[O-])cc2)cc1
- log K [4]: 3.97
- log K [5]: 3.87

SMILES: COC(=O)[C@H](Cc1ccc(O)cc1)NC(C)=O
- logKcat [2]: 2.07
- log(1/Km) [3]: 3.49

SMILES: O=C(Oc1ccc([N+](=O)[O-])cc1[N+](=O)[O-])c1cccc(F)c1
- log K [4]: 5.25

SMILES: COC(=O)[C@@H](NC(=O)c1ccccc1)C(C)C
- log K [4]: -1.04
- log(1/Km) [8]: 2.34
- log K [7]: -0.66
- logKcat [9]: -1.19

SMILES: Cc1cccc(C(=O)Oc2ccc([N+](=O)[O-])cc2)c1
- log K [4]: 3.29

SMILES: CCc1ccc(C(=O)Oc2ccc([N+](=O)[O-])cc2[N+](=O)[O-])cc1
- log K [4]: 5.53

SMILES: COC(=O)CNC(=O)c1ccncc1
- logKcat [2]: -0.8
- log(1/Km) [3]: 1.75

SMILES: CCc1ccccc1
- log1/Ki [6]: 2.74

SMILES: O=C(O)CCc1ccccc1
- log1/Ki [1]: 2.79

SMILES: CC[C@H](NC(=O)c1ccccc1)C(=O)OC
- log K [4]: -0.39
- log(1/Km) [8]: 2.85
- log K [7]: 0.18
- logKcat [9]: -0.49

SMILES: O=C(Oc1ccc([N+](=O)[O-])cc1)c1ccc([N+](=O)[O-])cc1
- log K [4]: 3.96
- log K [5]: 3.55
- log K [7]: -3.44

SMILES: O=C(O)CCCc1ccccc1
- log1/Ki [1]: 3.22

SMILES: CCOC(=O)[C@H](Cc1ccc(O)cc1)NC(C)=O
- log K [4]: 3.7
- log(1/Km) [8]: 3.15
- log K [7]: 2.3
- logKcat [9]: 2.28

SMILES: COC(=O)[C@H](Cc1ccccc1)NC(=O)c1ccccc1
- log K [4]: 1.66
- log(1/Km) [8]: 4.46
- log K [7]: 1.96
- logKcat [9]: 1.49

SMILES: COc1ccc(C(=O)Oc2ccc([N+](=O)[O-])cc2)cc1
- log K [4]: 2.97
- log K [5]: 2.78
- log K [7]: -4.39

SMILES: COC(=O)[C@@H](NC(C)=O)C(C)C
- log K [4]: -0.01
- log(1/Km) [8]: 0.95
- log K [7]: -0.68
- logKcat [9]: -0.82

SMILES: CCOC(=O)NCC(=O)OC
- logKcat [2]: -0.88
- log(1/Km) [3]: 1.19

SMILES: C1=Cc2ccccc2C1
- log1/Ki [1]: 3.67

SMILES: Cc1ccc(C(=O)Oc2ccc([N+](=O)[O-])cc2[N+](=O)[O-])cc1
- log K [4]: 5.22

SMILES: CCC(=O)NCC(=O)OC
- logKcat [2]: -1.74
- log(1/Km) [3]: 1.42

SMILES: CCOC(=O)[C@@H](NC(C)=O)C(C)C
- log K [4]: -0.26
- log(1/Km) [8]: 0.96
- log K [7]: -0.68
- logKcat [9]: -0.88

SMILES: O=[N+]([O-])c1ccccc1
- log1/Ki [6]: 3.02

SMILES: COC(=O)[C@H](Cc1ccc(O)cc1)NC(=O)c1ccccc1
- log K [4]: 2.56
- log(1/Km) [8]: 4.74
- log K [7]: 2.08
- logKcat [9]: 1.96

SMILES: COC(=O)CNS(C)(=O)=O
- logKcat [2]: -1.92
- log(1/Km) [3]: 1.07

SMILES: COC(=O)CNC(=O)CCl
- log(1/Km) [3]: 1.16
- logKcat [9]: -1.26

SMILES: CC[C@H](NC(C)=O)C(=O)OC
- log K [4]: 0.94
- log(1/Km) [8]: 1.28
- log K [7]: 0.22
- logKcat [9]: 0.02

SMILES: CC(C)(C)c1ccc(C(=O)Oc2ccc([N+](=O)[O-])cc2)cc1
- log K [4]: 4.07

SMILES: Cc1cccc(C(=O)Oc2ccc([N+](=O)[O-])cc2[N+](=O)[O-])c1
- log K [4]: 4.75

SMILES: CCC[C@H](NC(C)=O)C(=O)OC
- log K [4]: 1.55
- log(1/Km) [8]: 1.99
- log K [7]: 0.77
- logKcat [9]: 0.43

SMILES: O=C(Oc1ccc([N+](=O)[O-])cc1)c1ccc(Cl)cc1
- log K [4]: 3.56
- log K [5]: 3.27
- log K [7]: -3.48

SMILES: O=C(Oc1ccc([N+](=O)[O-])cc1[N+](=O)[O-])c1ccc(Cl)cc1
- log K [4]: 5.55

SMILES: CCOC(=O)[C@H](Cc1ccccc1)NC(C)=O
- log K [4]: 2.42
- log(1/Km) [8]: 2.96
- log K [7]: 1.97
- logKcat [9]: 1.84

SMILES: O=C(O)c1ccccc1
- log1/Ki [1]: 1.99

SMILES: c1ccc2ccccc2c1
- log1/Ki [6]: 3.93

SMILES: CCOC(=O)[C@H](Cc1ccc(O)cc1)NC(=O)c1ccccc1
- log K [4]: 2.4
- log(1/Km) [8]: 4.66
- log K [7]: 2.12
- logKcat [9]: 1.93
